For 72 molecules, EC50, IC50 and outcome results are on record in PubChem BioAssay AID179 (DTP/NCI, 2004).

By EC50 is commonly meant the concentration giving half of the maximal effect. One may read the IC50 as the concentration that inhibits the measured activity by half. The low end stands for greater potency in that assay, the high end for weaker potency in that assay.

The experiment has as its system CEM cells HIV-1 protection, formazan growth assay. Briefly: NCI AIDS Antiviral Assay. To be noted: for IC50: measured here: growth of uninfected CEM cells. The procedure, abridged:
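Screen of anti-HIV-1 activity in human CEM cells using a formazan-based growth measurement at five drug concentrations. Hits with 50% or greater protection were repeated, and confirmation required reproducible complete protection.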

Several values for one entry are separate records, joined by “and”; a condition that tells them apart may be missing. Identical values can stand only once. Activity calls are given as the source filed them.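 Rule for the calls: active = compounds giving half or more protection of infected cells from virus-caused growth loss, again on retest; inactive = the rest.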

Regarding `CC(=O)OC1CC2C(C)(C)C(=O)C=C[C@]2(C)C2CCC3(C)C(c4ccoc4)C(=O)[C@H]4O[C@]43[C@]12C` (stereo partly drawn), the half-maximal effective concentration (EC50) was > 15.5 µM and the IC50 stood at 12 µM.
With `CCCc1c(C(=O)OCC)[nH]c(C(=O)CCC(=O)c2[nH]c(C(=O)OCC)c(CCC)c2C(=O)OCC)c1C(=O)OCC`, the EC50 is > 17 µM and the IC50 is > 17 µM.
On to `CON(C)c1nc(N(C)OC)nc(N(C)OC)n1`, for which the EC50 was > 200 µM and the IC50 is > 200 µM.
`O=C(CC(=O)Nc1ccccc1)N/N=C/c1cc(N=Nc2ccc(Br)cc2)ccc1O`: the EC50 is > 200 µM and the IC50 turned out to be 1.35 µM.
The matching figures for `CC(=O)OCC(OC(C)=O)C(OC(C)=O)C(/C=N\Nc1nc2ccccc2c(=O)[nH]1)=N\Nc1nc2ccccc2c(=O)[nH]1` (stereo not drawn): > 200 µM and > 200 µM.
With `Nc1ncnc2c1C=C(B(O)O)B(O)N2`, the EC50 was > 126 µM and the IC50 is 74.1 µM.
Turning to `COc1ccccc1-c1cc(=O)c2cc(C)c(C)c(C(=O)O)c2o1`, the result was inactive.
As to `C1=NN2C(c3ccccc3)=NOC2C2C(c3ccccc3)=NOC12` (stereo not drawn), the EC50 was > 200 µM and the half-inhibitory concentration (IC50) was > 200 µM.
With `CSc1n[nH]c(NC(=O)c2ccccc2Cl)n1`, the EC50 is > 132 µM and the IC50 is > 132 µM.
Turning to `C/C(=N/O)c1ccc2c(c1)C(=NO)c1cc(/C(C)=N/O)ccc1-2`, the EC50 was > 83.2 µM and the IC50 came to 11.5 µM.
As for `O=C(c1ccccc1)N1C/C(=N\Nc2ccc(Cl)cc2)c2c([nH]c3ccccc23)C1`, the EC50 was > 9.12 µM and the half-inhibitory concentration (IC50) is > 9.12 µM.
Regarding `Nc1nc2c(ncn2C2C=CC(CO)CC2)c(=O)[nH]1` (stereo not drawn), the EC50 is > 200 µM and the IC50 was > 200 µM.
On to `CC(=O)OC1CCC2(C)C(CCC3C2CCC2(C)C3CCC2C(C)(C)O)C1` (stereo not drawn), for which the EC50 was > 200 µM and the IC50 turned out to be 174 µM.
The matching figures for `CC(CC=O)Nc1nn2c(=O)c3ccccc3nc2s1` (stereo not drawn): > 200 µM and 132 µM.
Consider `COc1cc(CNC(=O)CCCCCCCCCCSC#N)ccc1O`, for which the EC50 is > 200 µM and the IC50 was determined as 27.5 µM.
Regarding `CCOC(=O)C1(C(F)(F)F)N=C(CC)OC(N2CCOCC2)=N1` (stereo not drawn), the EC50 was > 200 µM and the IC50 is > 200 µM.
`N=S(c1ccccc1)c1ccccc1[N+](=O)[O-]` (stereo not drawn): the EC50 was > 158 µM and the IC50 was 1.7 µM.
As for `CCOC(=O)c1ccccc1NNC(=O)CCC(=O)O`, the EC50 is > 224 µM and the concentration for half-maximal inhibition (IC50) worked out at 219 µM.
The matching figures for `CC(=O)Nc1ccc(C(=O)NN2C(=O)C(Cl)C2c2ccc([N+](=O)[O-])cc2)cc1` (stereo not drawn): > 200 µM and 112 µM.
Regarding `CCN(CC)c1c(C)nnn1C1OC(COC(C)=O)C(OC(C)=O)C(OC(C)=O)C1OC(C)=O` (stereo not drawn), the EC50 is > 141 µM and the IC50 was > 141 µM.
On to `Clc1ccc(C2SCc3nc4ccccc4n32)c(Cl)c1` (stereo not drawn), for which the result was inactive.
Turning to `CCOC(=O)Nc1nc2cc(C(=O)OCC)n(C)c2s1`, the EC50 is > 200 µM and the half-inhibitory concentration (IC50) is > 200 µM.
On to `NC(CSS(=O)(=O)O)=NCCCCC1CCCCC1`, for which the EC50 was > 200 µM and the half-maximal inhibitory concentration (IC50) was found to be 30.9 µM.
In the case of `Nc1nc(Cl)cc(Nc2cc(Cl)cc(Cl)c2)n1`, the EC50 is > 200 µM and the IC50 turned out to be 23.4 µM.
Consider `N#Cc1nc(-c2cc([N+](=O)[O-])cc([N+](=O)[O-])c2)oc1N`, for which the EC50 was > 100 µM and the IC50 was > 100 µM.
For `CCc1cccc(C)c1NC(=O)CCc1nnc(SC)o1`, the EC50 was > 162 µM and the half-inhibitory concentration (IC50) was > 162 µM.
Regarding `CC(=O)c1cc(CC2Cc3cc4c(cc3C2=O)CCC4)cc2c1CCC2` (stereo not drawn), the EC50 is > 200 µM and the IC50 is 12.9 µM.
For `c1ccc(-c2cn3nc(N4CCOCC4)sc3n2)cc1` the same measures were > 200 µM and > 200 µM.
Take `O=c1c2ccccc2oc2nc3ccc(Cl)cc3n12`: the EC50 is > 37.2 µM and the half-inhibitory concentration (IC50) is > 37.2 µM.
Consider `COc1ccccc1C(O)(c1ccccc1)C(O)(c1ccccc1)c1ccccc1OC` (stereo not drawn), for which the EC50 was > 15.8 µM and the IC50 was > 15.8 µM.
For the molecule `CC1=C(C(N)=O)C(c2ccncc2)C(C#N)C(=O)N1` (stereo not drawn), the EC50 is > 200 µM and the half-inhibitory concentration (IC50) was determined as 145 µM.
Take `N#C/C(=C\c1ccc(F)cc1)C(=O)c1ccccc1`: the EC50 is > 70.8 µM.
With `Cc1cc2c(c(C#N)c1C)NC(=O)CN=C2c1ccccc1F`, the EC50 was 70.8 µM and the IC50 was > 200 µM.
For `Cc1c(O)c2ccccc2oc1=O` the same measures were > 200 µM and > 200 µM.
With `C[N+]1(C)CCCC(C#N)(c2ccccc2)CC1` (stereo not drawn), the EC50 is > 813 µM.
Regarding `OCC1OC(n2nc(-c3ccccc3)nc2-c2cnccn2)C(O)C1O` (stereo not drawn), the EC50 was > 200 µM and the concentration for half-maximal inhibition (IC50) was > 200 µM.
As for `CC(=O)Oc1ccc2c(c1)oc1c3ccc(OC(C)=O)cc3n(C)c(=O)c21`, the EC50 is > 200 µM and the IC50 worked out at 107 µM.
For `O=c1[nH]n(-c2ccccc2)c(=O)cc1Cl` the same measures were > 85.1 µM and > 85.1 µM.
Take `CN(C)c1cc2ccccc2oc1=O`: the EC50 was > 692 µM and the IC50 is > 692 µM.
As to `O=C(CCCN1CCC2(CC1)CC(=O)N(N1CCCCCC1)C2=O)c1ccc(F)cc1`, the EC50 was > 200 µM and the IC50 was > 200 µM.
For `COc1cc(/C=C/c2nc3ccccc3nc2/C=C/c2cc(OC)c(OC)c(OC)c2)cc(OC)c1OC`, the EC50 was > 7.41 µM and the half-maximal inhibitory concentration (IC50) is > 7.41 µM.
With `Cc1ccc2oc(=O)c(C#N)c(C)c2c1`, the EC50 is > 25.1 µM and the half-maximal inhibitory concentration (IC50) was > 25.1 µM.
Regarding `CC(Cc1ccccc1)NC1=NCCO1` (stereo not drawn), the EC50 was > 200 µM and the half-inhibitory concentration (IC50) stood at 145 µM.
The matching figures for `O=C(O)Cc1ccc2c(c1O)C(=O)c1c(ccc(CC(=O)O)c1O)C2=O`: > 191 µM and 126 µM.
`O=C(O)c1ccc2cc(O)ccc2c1`: the EC50 was > 200 µM and the IC50 is > 200 µM.
Turning to `Cc1nc2cc(Cl)cc(N)c2nc1C`, the EC50 is > 631 µM and the IC50 was determined as 295 µM.
For `CC1CCn2c(=S)[nH]c3cccc(c32)N1` (stereo not drawn) the same measures were 42.7 µM and 182 µM.
On to `NC(Cn1ccc(=O)c(O)c1)C(=O)O` (stereo not drawn), for which the EC50 is > 200 µM and the concentration for half-maximal inhibition (IC50) was 95.5 µM.
On to `S=P(N1CCOCC1)(N1CC1)N1CC1`, for which the EC50 was > 200 µM and the half-maximal inhibitory concentration (IC50) is 5.25 µM.
With `CC(C)(C)CC(C)(C)c1cc2c(O)c(c1)Cc1cc(C(C)(C)CC(C)(C)C)cc(c1O)Cc1cc(C(C)(C)CC(C)(C)C)cc(c1O)Cc1cc(C(C)(C)CC(C)(C)C)cc(c1O)Cc1cc(C(C)(C)CC(C)(C)C)cc(c1O)Cc1cc(C(C)(C)CC(C)(C)C)cc(c1O)Cc1cc(C(C)(C)CC(C)(C)C)cc(c1O)Cc1cc(C(C)(C)CC(C)(C)C)cc(c1O)C2`, the EC50 is > 2.04 µM and the 50% inhibitory concentration (IC50) was > 2.04 µM.
As for `CC1CN=C(N(C(=O)Nc2ccc(Cl)c(Cl)c2)c2ccccc2)S1` (stereo not drawn), the EC50 was > 200 µM and the 50% inhibitory concentration (IC50) is > 200 µM.
As to `COc1ccc(/C=C/c2nc(=S)[nH][nH]2)cc1OC`, the EC50 is > 135 µM and the 50% inhibitory concentration (IC50) was found to be 110 µM.
Consider `CN(C)C=C(S(C)(=O)=O)S(C)(=O)=O`, for which the EC50 is > 200 µM and the IC50 was determined as 126 µM.
For `O=C(C1OC1c1ccc(Br)cc1O)C12CC3CC(CC(C3)C1)C2` (stereo not drawn) the same measures were > 200 µM and 110 µM.
As for `COC(=O)c1cc(C#N)[nH]c1-c1ccsc1`, the EC50 is > 200 µM and the IC50 stood at 30.9 µM.
In the case of `CN1CCCC1CCNc1nc(C(Cl)(Cl)Cl)nc2cc(Cl)ccc12` (stereo not drawn), the EC50 was > 24.5 µM and the half-inhibitory concentration (IC50) was 12.9 µM.
For `O=c1n(CCO)nc2n1CCCN2` the same measures were > 200 µM and > 200 µM.
In the case of `Nc1ccc(C(=O)N/C(=C\c2cccc([N+](=O)[O-])c2)c2nc3[nH]c(=S)[nH]c(=O)c3[nH]2)cc1`, the result was inactive.
Take `CCOC(=O)C1=C(C(=O)OCC)C2c3ccccc3C=CN2C(C(=O)OCC)=C(SC)S1` (stereo not drawn): the EC50 was > 7.94 µM and the concentration for half-maximal inhibition (IC50) was > 7.94 µM.
As for `CN(C)C1=c2c(=O)n(C)c(=O)n(C)c2=NC2C=CC=CN12` (stereo not drawn), the EC50 was > 174 µM and the half-maximal inhibitory concentration (IC50) is > 174 µM.
Take `Cn1cc(NC(=O)c2cc(NC(=O)c3cc(NC=O)cn3C)cn2C)cc1C(=O)NCCC(=N)N`: the EC50 is > 513 µM and the 50% inhibitory concentration (IC50) worked out at 30.2 µM.
Take `O=C1C=C2C=CC3CC2(O1)C1CCCCN31` (stereo not drawn): the EC50 was > 1150 µM; the IC50 is 8.91 µM and 5.37 µM.
Consider `N#C/C(=C\c1cc(O)c(O)c(Br)c1)C(=O)NCCCNC(=O)/C(C#N)=C/c1cc(O)c(O)c(Br)c1`, for which the EC50 was > 200 µM and the IC50 amounted to 112 µM.
For `CCOC(=O)CC[C@H](NC(=O)c1[nH]cnc1/N=N/N(C)C)C(=O)OCC` the same measures were > 676 µM and 339 µM.
On to `O=S1(=O)C(c2cccc(F)c2)=C(O)c2cc3ccccc3nc21`, for which the outcome was inactive.
Consider `COc1c(-c2ccccc2)oc2c(CP(=O)(OC)OC)cccc2c1=O`, for which the EC50 was > 200 µM and the IC50 is 56.2 µM.
Turning to `COc1ccc(N2C(=O)C3c4[nH]c5ccccc5c4C4CCC(C(C)C)CC4C3C2=O)cc1` (stereo not drawn), the EC50 was > 100 µM and the half-inhibitory concentration (IC50) amounted to 93.3 µM.
Take `CC1(C)OC(=O)C(=Cc2cccc(C#N)c2)C(=O)O1`: the EC50 is > 708 µM and the IC50 is 41.7 µM.
`CC(=O)O[C@@H]1CO[C@H]2O[C@H]3[C@@H](C(C=O)=C[C@H](O)[C@@H]4C5=C(C(C)C)CC[C@]5(C)CC[C@@]34C)[C@@]2(O)C1=O`: the EC50 was > 0.575 µM and the concentration for half-maximal inhibition (IC50) stood at 0.0759 µM.
`CN1CCN=C1c1nnn(-c2ccc([N+](=O)[O-])cc2)c1-c1ccccc1`: the EC50 was 57.5 µM and the IC50 was determined as 145 µM.
As for `CC1[C@@H](OCc2ccccc2)COC(=O)N1Cc1ccccc1` (stereo partly drawn), the EC50 was > 200 µM and the half-maximal inhibitory concentration (IC50) stood at 89.1 µM.
For `COC(=O)C1(C(=O)OC)C2=Nc3ccccc3[C@@]23CCN(Cc2ccccc2)C3C[C@H]1c1ccoc1` (stereo partly drawn) the same measures were > 36.3 µM and 21.4 µM.
